Reference: US11680056B2, “MK2 inhibitors and uses thereof” (Xinthera, Inc., priority 2021, dated 2023)
Read-outs that look alike come from different tables or passages of the source.

Experiments:
p38a/PRAK = p38a/PRAK (Homo sapiens (Human), UniProt Q16539); experiment: p38a/PRAK biochemical assay: activation of PRAK by p38, FITC-HSP27 peptide phosphorylation (IMAP FP); settings: 10-point 1:3 dilution, top dose 300 μM, 60 pM active p38a, 1 nM inactive PRAK, 10 μM ATP, 2 h incubation; for IC50: read-out: p38a/PRAK Enzyme pIC50 (converted)
Method in brief: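 GST-tagged MK2 (F46–H400) and PRAK (M1–Q471), expressed in E. coli, activated by p38 and phosphorylate FITC-HSP27 peptide over 2 h with compound; readout by IMAP fluorescence polarisation (ex 485/em 528 nm). Ten-point 1:3 dilutions, top dose 1 μM for MK2 and 300 μM for PRAK. IC50 after vehicle normalisation; selectivity = IC50(PRAK)/IC50(MK2).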

p38a/MK2 = p38a/MK2 (Homo sapiens (Human), UniProt P49137+Q16539); experiment: p38a/MK2 biochemical assay: activation of MK2 by p38, FITC-HSP27 peptide phosphorylation (IMAP FP); settings: 10-point 1:3 dilution, 60 pM active p38a, 1 nM inactive MK2, 10 μM ATP, 2 h incubation
[1] = top dose 1 μM, read-out: p38a/MK2 (1 μM) Enzyme pIC50 (converted)
[2] = top dose 10 μM, read-out: p38a/MK2 (10 μM) Enzyme pIC50 (converted)

p38a/MK2, sequence (P49137 46-400): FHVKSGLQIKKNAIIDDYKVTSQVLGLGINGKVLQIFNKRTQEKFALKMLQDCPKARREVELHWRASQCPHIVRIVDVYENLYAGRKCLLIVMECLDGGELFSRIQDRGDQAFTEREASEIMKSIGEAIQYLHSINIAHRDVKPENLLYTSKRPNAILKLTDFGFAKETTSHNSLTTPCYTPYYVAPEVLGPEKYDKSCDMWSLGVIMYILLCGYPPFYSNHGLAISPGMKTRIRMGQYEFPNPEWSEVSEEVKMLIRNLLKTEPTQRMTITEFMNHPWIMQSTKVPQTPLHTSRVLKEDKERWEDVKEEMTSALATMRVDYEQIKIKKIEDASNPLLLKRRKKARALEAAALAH
p38a/MK2, sequence (Q16539 whole entry): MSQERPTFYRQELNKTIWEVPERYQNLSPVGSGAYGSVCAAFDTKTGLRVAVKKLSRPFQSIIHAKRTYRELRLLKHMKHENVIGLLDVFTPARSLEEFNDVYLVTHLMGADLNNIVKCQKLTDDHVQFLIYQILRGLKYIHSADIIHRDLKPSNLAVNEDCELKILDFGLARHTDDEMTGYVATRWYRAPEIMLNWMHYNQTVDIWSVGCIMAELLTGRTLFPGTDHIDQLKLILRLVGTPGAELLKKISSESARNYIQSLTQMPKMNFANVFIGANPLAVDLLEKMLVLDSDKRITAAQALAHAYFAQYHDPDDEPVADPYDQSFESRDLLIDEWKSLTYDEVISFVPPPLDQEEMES
p38a/PRAK, sequence (Q16539 whole entry): as above

SMILES | IC50 (p38a/PRAK) | IC50 (p38a/MK2; [1]) | IC50 (p38a/MK2; [2]) | also measured
Cc1cnc(-c2cccc([C@@](C)(O)CO)n2)cc1-n1c(C)cc(OCc2ncc(F)cc2F)c(Cl)c1=O (stereo in doubt) [Example 36A, rel-3-chloro-4-[(3,5-difluoropyridin-2-yl)methoxy]-2′-[6-(1,2-dihydroxypropan-2-yl)pyridin-2-yl]-5′,6-dimethyl-[1,4′-bipyridin]-2-one] | – | – | – | p38a/PRAK Enzyme pIC50 (p38a/PRAK): 5.3; p38a/MK2 (1 μM) Enzyme pIC50 (p38a/MK2; top dose 1 μM): 8.3
Cc1cnc(-n2ccc(C(C)(C)O)n2)c(C)c1-n1c(C)cc(OCc2ncc(F)cc2F)c(Cl)c1=O (single isomer, unassigned) [Example 50B, rel-3-chloro-4-[(3,5-difluoropyridin-2-yl)methoxy]-2′-[3-(2-hydroxypropan-2-yl)pyrazol-1-yl]-3′,5′,6-trimethyl-[1,4′-bipyridin]-2-one] | > 316 µM | > 1 µM | – | –
Cc1cnc(-c2ccnc(C(C)(C)O)n2)cc1-n1c(C)cc(COc2ncc(F)cc2F)c(Cl)c1=O (atropisomer, axis not shown) [Example 15, 3-chloro-4-{[(3,5-difluoropyridin-2-yl)oxy]methyl}-2′-[2-(2-hydroxypropan-2-yl)pyrimidin-4-yl]-5′,6-dimethyl-[1,4′-bipyridin]-2-one] | 158 µM | – | – | p38a/MK2 (10 μM) Enzyme pIC50 (p38a/MK2; top dose 10 μM): 5.4
Cc1cnc(-c2ccnc(C(C)(C)CO)n2)cc1-n1c(C)cc(OCc2ncc(F)cc2F)c(Cl)c1=O (single isomer, unassigned) [Example 4B, rel-3-chloro-4-[(3,5-difluoropyridin-2-yl)methoxy]-2′-[2-(1-hydroxy-2-methylpropan-2-yl)pyrimidin-4-yl]-5′,6-dimethyl-[1,4′-bipyridin]-2-one] | > 316 µM | – | 0.794 µM | –
Cc1cnc(-c2ccnc(C(C)(C)O)n2)cc1-c1c(C)cc(OCc2ncc(F)cc2F)c(Cl)c1F [Example 1, 2-[4-(4-{3-chloro-4-[(3,5-difluoropyridin-2-yl)methoxy]-2-fluoro-6-methylphenyl}-5-methylpyridin-2-yl)pyrimidin-2-yl]propan-2-ol] | > 316 µM | – | – | p38a/MK2 (10 μM) Enzyme pIC50 (p38a/MK2; top dose 10 μM): 5.2
Cc1cnc(-c2ccnc([C@@](C)(O)C3CC3)n2)cc1-n1c(C)cc(OCc2ncc(F)cc2F)c(Cl)c1=O (racemic) [Example 6, 3-chloro-2′-[2-(1-cyclopropyl-1-hydroxyethyl)pyrimidin-4-yl]-4-[(3,5-difluoropyridin-2-yl)methoxy]-5′,6-dimethyl-[1,4′-bipyridin]-2-one] | 12.6 µM | – | – | p38a/MK2 (10 μM) Enzyme pIC50 (p38a/MK2; top dose 10 μM): 7.5
[2H]C([2H])(Oc1cc(C)n(-c2c(C)cnc(-c3ccnc(CC4(O)CC4)n3)c2F)c(=O)c1Cl)c1ncc(F)cc1F (single isomer, unassigned) [Example 61A, rel-3-chloro-4-((3,5-difluoropyridin-2-yl)methoxy-d2)-3′-fluoro-2′-(2-((1-hydroxycyclopropyl)methyl)pyrimidin-4-yl)-5′,6-dimethyl-2H-[1,4′-bipyridin]-2-one] | 158 µM | > 0.1 µM | – | –
Cc1cnc(-c2ccnc(C(C)(C)C(F)F)n2)cc1-n1c(C)cc(OCc2ncc(F)cc2F)c(Cl)c1=O (single isomer, unassigned) [Example 5B, rel-3-chloro-2′-[2-(1,1-difluoro-2-methylpropan-2-yl)pyrimidin-4-yl]-4-[(3,5-difluoropyridin-2-yl)methoxy]-5′,6-dimethyl-[1,4′-bipyridin]-2-one] | > 316 µM | – | 2 µM | –
Cc1sc(-c2ccnc(C(C)(C)O)n2)cc1-n1c(C)cc(OCc2ncc(F)cc2F)c(Cl)c1=O (single isomer, unassigned) [Example 33A, 3-chloro-4-[(3,5-difluoropyridin-2-yl)methoxy]-1-{5-[2-(2-hydroxypropan-2-yl)pyrimidin-4-yl]-2-methylthiophen-3-yl}-6-methylpyridin-2-one] | 5.01 µM | 0.0251 µM | – | –

More lines, main results first:

IC50 (p38a/PRAK) | IC50 (p38a/MK2; [1]) | IC50 (p38a/MK2; [2]) | SMILES | also measured
10 µM | 0.02 µM | – | Cc1cnc(-c2cccc([C@@H](O)CO)n2)cc1-n1c(C)cc(OCc2ncc(F)cc2F)c(Cl)c1=O (single isomer, unassigned) [Example 34A, rel-3-chloro-4-[(3,5-difluoropyridin-2-yl)methoxy]-2′-[6-(1,2-dihydroxyethyl)pyridin-2-yl]-5′,6-dimethyl-[1,4′-bipyridin]-2-one] | –
79.4 µM | > 0.1 µM | – | [2H]C([2H])(Oc1cc(C)n(-c2c(C)cnc(-c3ccnc(C(C)(C)O)c3F)c2F)c(=O)c1Cl)c1ncc(F)cc1F (single isomer, unassigned) [Example 65B, rel-3-chloro-1-[3,3′-difluoro-2′-(2-hydroxypropan-2-yl)-5-methyl-[2,4′-bipyridin]-4-yl]-4-[(3,5-difluoropyridin-2-yl)(2H2)methoxy]-6-methylpyridin-2-one] | –
15.8 µM | 0.126 µM | – | Cc1cc(OCc2ncc(F)cc2F)c(Cl)c(=O)n1-c1cc(-c2ccnc(C(C)(C)O)n2)ncc1C1CC1 (single isomer, unassigned) [Example 40A, rel-3-chloro-5′-cyclopropyl-4-[(3,5-difluoropyridin-2-yl)methoxy]-2′-[2-(2-hydroxypropan-2-yl)pyrimidin-4-yl]-6-methyl-[1,4′-bipyridin]-2-one] | –
> 316 µM | – | 3.16 µM | Cc1cnc(-c2ccnc([C@](C)(O)C3CC3)n2)cc1-n1c(C)cc(OCc2ncc(F)cc2F)c(Cl)c1=O (single isomer, unassigned) [Example 6C, rel-3-chloro-2′-[2-(1-cyclopropyl-1-hydroxyethyl)pyrimidin-4-yl]-4-[(3,5-difluoropyridin-2-yl)methoxy]-5′,6-dimethyl-[1,4′-bipyridin]-2-one] | –
> 316 µM | > 1 µM | – | Cc1cnc(-c2ccnc(C3(O)CCOCC3)n2)cc1-n1c(C)cc(OCc2ncc(F)cc2F)c(Cl)c1=O (single isomer, unassigned) [Example 39B, rel-3-chloro-4-((3,5-difluoropyridin-2-yl)methoxy)-2′-(2-(4-hydroxytetrahydro-2H-pyran-4-yl)pyrimidin-4-yl)-5′,6-dimethyl-2H-[1,4′-bipyridin]-2-one] | –
> 316 µM | – | > 10 µM | Cc1cnc(-c2nc(C(C)(C)O)ncc2C2CC2)cc1-n1c(C)cc(OCc2ncc(F)cc2F)c(Cl)c1=O (single isomer, unassigned) [Example 31B, rel-3-chloro-2′-(5-cyclopropyl-2-(2-hydroxypropan-2-yl)pyrimidin-4-yl)-4-((3,5-difluoropyridin-2-yl)methoxy)-5′,6-dimethyl-2H-[1,4′-bipyridin]-2-one] | –
> 316 µM | – | > 10 µM | Cc1cnc(-c2ccnc(C3(O)CC3)n2)cc1-n1c(C)cc(OCc2ncc(F)cc2F)c(Cl)c1=O (single isomer, unassigned) [Example 3B, rel-3-chloro-4-[(3,5-difluoropyridin-2-yl)methoxy]-2′-[2-(1-hydroxycyclopropyl)pyrimidin-4-yl]-5′,6-dimethyl-[1,4′-bipyridin]-2-one] | –
> 316 µM | > 1 µM | – | Cc1cnc(-c2ccnc(C3(O)CCC3)n2)cc1-n1c(C)cc(OCc2ncc(F)cc2F)c(Cl)c1=O (single isomer, unassigned) [Example 41B, rel-3-chloro-4-[(3,5-difluoropyridin-2-yl)methoxy]-2′-[2-(1-hydroxycyclobutyl)pyrimidin-4-yl]-5′,6-dimethyl-[1,4′-bipyridin]-2-one] | –
> 316 µM | > 1 µM | – | Cc1cnc(-n2ccc(C(=O)NC3CC3)n2)cc1-n1c(C)cc(OCc2ncc(F)cc2F)c(Cl)c1=O (single isomer, unassigned) [Example 44B, rel-1-{3-chloro-4-[(3,5-difluoropyridin-2-yl)methoxy]-5′,6-dimethyl-2-oxo-[1,4′-bipyridin]-2′-yl}-N-cyclopropylpyrazole-3-carboxamide] | –
> 316 µM | – | 1 µM | Cc1cnc(-c2ccc3c(n2)C(C)(O)CC3)cc1-n1c(C)cc(OCc2ncc(F)cc2F)c(Cl)c1=O (single isomer, unassigned) [Example 32B] | –
1 µM | 0.00631 µM | – | [2H]C([2H])([2H])C(O)(c1nccc(-c2ncc(C)c(-n3c(C)cc(OCc4ncc(F)cc4F)c(Cl)c3=O)c2F)n1)C([2H])([2H])[2H] (single isomer, unassigned) [Example 66B, rel-3-chloro-4-((3,5-difluoropyridin-2-yl)methoxy)-3′-fluoro-2′-(2-(2-hydroxypropan-2-yl-1,1,1,3,3,3-d6)pyrimidin-4-yl)-5′,6-dimethyl-2H-[1,4′-bipyridin]-2-one] | –
> 316 µM | > 1 µM | – | Cc1cnc(-c2ccnc(C(C)(C)O)n2)c(C)c1-n1c(C)cc(OCc2ncc(F)cc2F)c(Cl)c1=O (single isomer, unassigned) [Example 49B, rel-3-chloro-4-((3,5-difluoropyridin-2-yl)methoxy)-2′-(2-(2-hydroxypropan-2-yl)pyrimidin-4-yl)-3′,5′,6-trimethyl-2H-[1,4′-bipyridin]-2-one] | –
3.16 µM | – | 0.0794 µM | Cc1cnc(-c2ccc3c(n2)[C@H](O)CC3)cc1-n1c(C)cc(OCc2ncc(F)cc2F)c(Cl)c1=O (single isomer, unassigned) [Example 18D] | –
